# From patent US20060067978A1, “Process for preparing poly(vinyl alcohol) drug delivery devices” (Bausch & Lomb Incorporated, priority 2004, published 2006)
# Test: thermal decomposition of the medicament at curing temperature
# Format: physicochemical
# Details: heat stability considered for curing poly(vinyl alcohol) in the presence of the medicament
compound,measurement,value
CC1(C)O[C@@H]2C[C@H]3[C@@H]4C[C@H](F)C5=CC(=O)C=C[C@]5(C)[C@@]4(F)[C@@H](O)C[C@]3(C)[C@]2(C(=O)CO)O1 [flucinolone acetonide],temperature above which the medicament begins to decompose,about 165 °C
